Assay results from PMC7118115, “Tumor-penetrating peptide for systemic targeting of Tenascin-C” (Scientific Reports, 2020).
Entries after “also recorded” stand apart in the source; their conditions may differ. Ends that are not written are not given here.

Columns and labels:
[1] = system: tumor tissue across models (4 glioma models and 1 prostate cancer model); assay: In vivo play-off phage auditioning, across tumor models; parameters: species or system nude mice; conditions: T7 phage play-off, i.v., 2 h
Procedure: (§1) In vivo play-off was used for internally controlled and competitive systemic phage homing studies in mice bearing tumor xenografts. Phages displaying the candidate TNC-C binding peptides and control peptides were individually amplified and purified by precipitation with PEG-8000 (Sigma-Aldrich, St. Louis, MO, USA), followed by […] gradient ultracentrifugation and dialysis. The phages were pooled at equimolar representation (Table 1 for details) and injected iv at 1 × 10^10 pfu (in 200 µl PBS) in tumor-bearing mice, circulated for 2 h, followed by anesthesia and intracardial perfusion with DMEM. The tumors and organs were collected in lysogeny broth (LB) medium containing 1% NP40, and the tissues were homogenized using a hand-held homogenizer. Phages in the tissue lysate were amplified in E.coli, purified by precipitation with PEG-8000, and DNA was extracted using a DNA extraction kit (High Pure PCR Template Preparation Kit; Roche, Basel, Switzerland). Next-generation sequencing of phage genomic DNA with Ion Torrent system (Thermo Fisher Scientific, Waltham, MA, USA) was used to evaluate the representation of each peptide-phage in the input mixture, in tumors and control organs. The FASTQ data from Ion Torrent were processed using a custom python script that identified the barcodes, constant flanking residues, and extracted the reads of the correct length.

PC3 = assay: In vivo play-off phage auditioning, PC3 tumor; parameters: species or system prostate carcinoma in athymic nude mice; conditions: phage-displayed peptide; equimolar mix, i.v. 1 × 10^10 pfu/mouse, 2 h circulation, perfusion; Ion-Torrent sequencing; mean, N = 3 mice
Procedure: (§2) Athymic nude mice (Hsd/Athymic Fox1 nu Harlan) were purchased from Envigo (Netherlands) and maintained under standard housing conditions of the Animal Facility of the Institute of Biomedicine and Translational Medicine, University of Tartu (Tartu, Estonia). For orthotropic GBM tumor models, we used NCH421K, P13, and P3 stem cell-like, WT-GBM cells. The individual GBM cells around 2–3 × 10^5 in 3 μL PBS were intracranially implanted into mice brain 2 mm right and 1 mm anterior to the bregma. U87-MG and PC3 subcutaneous models were induced by injecting 2–9 × 10^6 cells in 100 µl PBS subcutaneously into the right flank of 11–15 week old male and female nude mice. All animal experiments were performed in accordance with the procedures approved by the Committee of Animal Experimentation of Estonian Ministry of Agriculture, permits #42 and #48.
as §1

WT-GBM = assay: In vivo play-off phage auditioning, WT-GBM tumor; parameters: species or system murine WT-GBM glioblastoma in athymic nude mice; conditions: phage-displayed peptide; equimolar mix, i.v. 1 × 10^10 pfu/mouse, 2 h circulation, perfusion; Ion-Torrent sequencing; mean, N = 3 mice
Procedure: as §2, §1

U87-MG = assay: In vivo play-off phage auditioning, U87-MG tumor; parameters: species or system human glioblastoma in athymic nude mice; conditions: phage-displayed peptide; equimolar mix, i.v. 1 × 10^10 pfu/mouse, 2 h circulation, perfusion; Ion-Torrent sequencing; mean, N = 3 mice
Procedure: as §2, §1

[2] = system: recombinant b1b2 domain of NRP-1; assay: Cell-free phage binding to NRP-1; conditions: T7 phage-displayed peptide
Procedure: (§3) The eluted phages were titered and amplified for a next round of selection. After 5 rounds of selection, peptide-encoding DNA from a set of 48 phage clones was subjected to Sanger sequencing of peptide-encoding phage DNA[18],[22]. For cell-free binding studies with individual phage clones were incubated with Ni-NTA magnetic beads coated with hexahistidine-tagged TNC-C as above. RPARPAR phage binding to NRP-1-coated beads was used as a positive control. Phage clones displaying heptaglycine peptide (GGGGGGG, G7), or insertless phage clones were used as negative controls. […]
collected by centrifugation, resuspended in ice-cold IMAC buffer (25mM Tris-HCl, 400mM NaCl, 25mM imidazole pH 8, containing EDTA-free protease inhibitor cocktail and DNase I) and lysed by sonification (Bandelin Sonopuls HD 2070, Germany). […] TNC-C concentration was determined by bicinchoninic acid assay (Thermo Scientific #23227) , and the purity of the proteins was assessed by SDS -PAGE. […]
Single-chain antibodies: The cDNA sequences encoding TNC-C-G11-scFV were retrieved from US patent application EP2157102 A1, and synthetic DNA fragments were cloned in the pET28a+ expression plasmid. […] The purified antibodies were analyzed by SDS-PAGE. […]

recombinant TNC-C = assay: Cell-free phage binding to TNC-C; parameters: species or system human
Procedure: For biopanning on recombinant human TNC-C, we used NNK-encoded CX7C and X7 peptide T7 phage libraries with diversity ~5 × 10^8. Throughout our screens, the selected phages were amplified following plate amplification protocol. The 1st and 4th rounds of biopanning were performed on TNC-C immobilized on Costar 96-Well ELISA plate (#3590, Corning Life Sciences, Tewksbury, MA, USA). Briefly, the multiwell plates were coated with 20 µg/ml recombinant TNC-C in 100 µl of PBS overnight at 4 °C, followed by blocking with 1% bovine serum albumin (BSA) in PBS overnight at 4 °C. The phage library (5 × 10^8 pfu in 100 µl of PBS-BSA) was incubated overnight at 4 °C, followed by 6 washes with PBS containing 1% BSA and 0.1% Tween-20 (washing buffer) to remove background phages, and by phage rescue and amplification in E. coli strain BLT5403 (Novagen, EMD Biosciences, MA, USA)[8]. The subsequent rounds of selection were performed on Ni-NTA Magnetic Agarose Beads (QIAGEN, Hilden, Germany) coated with His-6X tagged TNC-C (30 µg/10 µl beads) at room temperature for 1 h in 400 µl of PBS. The TNC-C beads were washed 3 times with washing buffer, followed by incubation with phages in (5 × 10^8 pfu in 100 µl in washing buffer) at room temperature for 1 h. The background phages were removed by rinsing 6 times with washing buffer, and the bound phages were eluted with 1 ml of PBS containing 500 mM Imidazole and 0.1% NP40.
as §3
Fig. S13. NRP -1-dependent internalization of PL3 -functionalized AgNPs […]
Supplementary Materials and Methods
Cloning, expression , and purification of TNC-C
Vector Construction. A pF1K (Promega, # FXC00319) derivative plasmid containing full -length cDNA of TNC was used for PCR amplification of cDNA region of TNC-C with Phusion Hot Start II High -Fidelity DNA Polymerase (Thermo Fisher Scientific Inc # F -537L; primer pairs:
5′- CTCCTCT […] -3′ and 5′ -
CAGACA CTCGAG TTATCA TGTAACAATCTC -3′ for domain TNC -C. NdeI and XhoI restriction sites underlined ). The fragments were cloned in the pET28a+ plasmid for TNC -C expression as a n N-terminally His -tagged protein .
Expression and purification of TNC-C. The pET28a+ TNC-C plasmid was used for transformation of E. coli BL21 Rosetta 2 (DE3) pLysS cells (Novagen, #70956). The protein expression was induced by addition of isopropyl β-D-1-thiogalactopyranoside (IPTG) (Sigma, # I6758) to 0.5 mM final concentration and the bacteria were culture d at 18 °C for 16h . Cells were […]
collected by centrifugation, resuspended in ice-cold IMAC buffer (25mM Tris-HCl, 400mM NaCl, 25mM imidazole pH 8, containing EDTA-free protease inhibitor cocktail and DNase I) and lysed by sonification (Bandelin Sonopuls HD 2070, Germany). The cleared bacterial lysate was purified using HiTrap IMAC HP column s (GE Healthcare # 17 -0920-05) on ÄKTA purification system (GE Healthcare ), and the eluate was dialyzed against PBS using 3.5 kDa cut - off 3mL Slide-A-Lyzer Dialysis Cassettes (Thermo Scientific #66330). TNC-C concentration was determined by bicinchoninic acid assay (Thermo Scientific #23227) , and the purity of the proteins was assessed by SDS -PAGE. Mass spectrometry and de novo peptide sequencing were used to confirm the size and sequence of the purified proteins . His-tagged NRP-1 b1b2 domain was expressed and purified as described (Teesalu et al., 2009) .
Single-chain antibodies: The cDNA sequences encoding TNC-C-G11-scFV were retrieved from […]

Norm. brain = assay: In vivo play-off phage auditioning, normal brain; parameters: species or system athymic nude mice; conditions: phage-displayed peptide; equimolar mix, i.v. 1 × 10^10 pfu/mouse, 2 h circulation, perfusion; Ion-Torrent sequencing; mean, N = 3 mice
Procedure: as §1

P13 = assay: In vivo play-off phage auditioning, P13 tumor; parameters: species or system P13 glioblastoma in athymic nude mice; conditions: phage-displayed peptide; equimolar mix, i.v. 1 × 10^10 pfu/mouse, 2 h circulation, perfusion; Ion-Torrent sequencing; mean, N = 3 mice
Procedure: as §2, §1

P3 SCL = assay: In vivo play-off phage auditioning, P3 SCL tumor; parameters: species or system P3 stem cell-like glioblastoma in athymic nude mice; conditions: phage-displayed peptide; equimolar mix, i.v. 1 × 10^10 pfu/mouse, 2 h circulation, perfusion; Ion-Torrent sequencing; mean, N = 3 mice
Procedure: as §2, §1

fibronectin EDB-domain = assay: Cell-free phage binding to fibronectin EDB; conditions: T7 phage-displayed PL3; in words
[3] = target: recombinant b1b2 domain of neuropilin-1 (NRP-1); assay: phage binding to immobilized recombinant protein (cell-free); conditions: read off a plot
[4] = target: recombinant human Tenascin-C FnIII C domain (TNC-C), hexahistidine-tagged; assay: as above; conditions: read off a plot
[5] = target: recombinant b1b2 domain of neuropilin-1 (NRP-1); assay: fluorescence polarisation; fluorescence anisotropy saturation binding; 0.66 uM FAM-Cys-PL3 with 0-112 uM NRP1 or 0-275 uM TNC-C; DPBS with 0.1% Pluronic F-127; 24 h at 25 C; non-specific binding with 500 uM Biotin-Ahx-PL3; global fit, single binding site with ligand depletion
[6] = target: recombinant human Tenascin-C FnIII C domain (TNC-C), hexahistidine-tagged (human); assay: as above
[7] = target: recombinant b1b2 domain of neuropilin-1 (NRP-1); assay: phage binding assay; individual T7 phage clones incubated with Ni-NTA magnetic beads coated with hexahistidine-tagged TNC-C (30 ug/10 ul beads) or NRP-1-coated beads, room temperature 1 h, washing buffer PBS with 1% BSA and 0.1% Tween-20, elution with 500 mM imidazole and 0.1% NP40, phage titered; binding as fold heptaglycine (G7) control phage or percent of parental PL3 phage

AGRGRLVR (left off: T7 phage particle (peptide displayed on it), end not stated, kept) [PL3]
representation in tumor tissue across models [1]: overrepresented in tumor tissue across models tested
Representation of phage in tumors, PC3 (PC3): 3.9 fold G7 control phage
Representation of phage in tumors, WT-GBM (WT-GBM): 24.1 fold G7 control phage
Representation of phage in tumors, U87-MG (U87-MG): 2.1 fold G7 control phage
phage binding to NRP-1 (in words) ([2]; NRP-1 b1b2-coated beads): binds
PL3 phage binding to b1b2 domain of NRP-1 vs heptaglycine control phage ([2]; fold over G7 control phage): ~ 200 fold
phage binding to recombinant TNC-C (in words) (recombinant TNC-C; T7 phage-displayed peptide, alanine scan expressed as percent binding of parental PL3 phage, 3 independent experiments): binds; also recorded: robust interaction with TNC-C
Representation of phage in control brain tissue (Norm. brain) (Norm. brain): 0.4 fold G7 control phage
Representation of phage in tumors, P13 (P13): 4.7 fold G7 control phage
Representation of phage in tumors, P3 SCL (P3 SCL): 2.1 fold G7 control phage
phage binding to fibronectin EDB-domain (fibronectin EDB-domain): did not bind; also recorded: no binding

T7 phage displaying PL3 peptide (AGRGRLVR) G2A
percent of parent [3]: 92%
percent of parent [4]: 100%

T7 phage displaying PL3 peptide (AGRGRLVR) G4A
percent of parent [3]: 96%
percent of parent [4]: 90%

T7 phage displaying PL3 peptide (AGRGRLVR) L6A
percent of parent [3]: 140%
percent of parent [4]: 34%

T7 phage displaying PL3 peptide (AGRGRLVR) R3A
percent of parent [4]: 10%

T7 phage displaying PL3 peptide (AGRGRLVR) R5A
percent of parent [3]: 190%
percent of parent [4]: 49%

T7 phage displaying PL3 peptide (AGRGRLVR) R8A
percent of parent [3]: 19%
percent of parent [4]: 26%

T7 phage displaying PL3 peptide (AGRGRLVR) V7A
percent of parent [3]: 180%
percent of parent [4]: 76%

VGRVRFSRKLAAALE [Clone-30]
Representation of phage in tumors, PC3 (PC3): 1.2 fold G7 control phage
Representation of phage in tumors, WT-GBM (WT-GBM): 2.5 fold G7 control phage
Representation of phage in tumors, U87-MG (U87-MG): 0.7 fold G7 control phage
TNC-C binding (fold G7 control phage) (recombinant TNC-C; individual T7 phage clones, Ni-NTA magnetic beads coated with hexahistidine-tagged TNC-C): 3702 fold G7 control phage
Representation of phage in control brain tissue (Norm. brain) (Norm. brain): 0.1 fold G7 control phage
Representation of phage in tumors, P13 (P13): 0.5 fold G7 control phage
Representation of phage in tumors, P3 SCL (P3 SCL): 0.4 fold G7 control phage

B1: FAM-Cys-PL3 fluorescent peptide (peptide)
peptide: CAGRGRLVR
modifications: not fully specified (N-terminus); also: 6-aminohexanoic acid spacer, position not given here
Kd [5]: 1.1 µM
Kd [6]: 51 µM

AGRGRLVR [T7 phage displaying PL3 peptide (AGRGRLVR)]
fold binding over heptaglycine control phage [7]: 200 fold
